SMILES strings stand for the structures. pEC50: −log10 of the molar value.

This assay deals with T1, human M4 muscarinic acetylcholine receptor (Homo sapiens, UniProt P08173).
T1 construct: expressed in transfected cells
T1 sequence (P08173 1-479): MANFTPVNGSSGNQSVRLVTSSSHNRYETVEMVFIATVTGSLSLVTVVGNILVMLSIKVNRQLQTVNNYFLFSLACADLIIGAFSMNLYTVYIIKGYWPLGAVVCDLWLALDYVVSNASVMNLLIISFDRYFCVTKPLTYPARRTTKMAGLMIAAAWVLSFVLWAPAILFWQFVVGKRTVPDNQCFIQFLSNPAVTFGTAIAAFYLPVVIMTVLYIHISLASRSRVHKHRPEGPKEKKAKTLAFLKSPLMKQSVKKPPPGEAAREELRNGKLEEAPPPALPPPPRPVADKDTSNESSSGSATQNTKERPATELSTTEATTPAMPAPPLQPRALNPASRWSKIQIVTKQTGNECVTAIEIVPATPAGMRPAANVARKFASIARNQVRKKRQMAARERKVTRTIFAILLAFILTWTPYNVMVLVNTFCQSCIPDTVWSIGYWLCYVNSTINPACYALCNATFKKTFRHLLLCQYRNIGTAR
The experiment in a line: human FLIPR-based M4 PAM assay (CHO-K1 cells with human M4 receptor and Gαqi5, calcium dye fluorescence). It is filed as cell-based. The conditions noted are these: inflection point of 4 parameter logistic fit; acetylcholine added at 20% of maximum response; read-out: M4PAM IP. How it is done:
In a typical experiment the M4 muscarinic acetylcholine receptor modulating activity of the compounds of the present invention was determined in accordance with the following experimental method. CHO-K1 cells stably transfected with human M4 receptor and chimeric G-protein Gαqi5 (Coward P, et al., Analytical Biochemistry, 270:242-248 (1999)) are thawed from liquid N2 storage, resuspended in growth medium, plated in black, clear bottom 384 well plates, and incubated 16-20 hours at 37° C., 5% CO2. On the day of assay, growth medium is removed, the cells are washed 2 times with wash buffer, and cells are incubated in dye loading buffer at 37° C., 5% CO2 for ˜1 hour. Following dye loading the cell plates are placed in a FLIPR Tetra instrument and while monitoring dye fluorescence (excitation […]), 10 uL of test substance at increasing concentrations is added, and fluorescence values are recorded for 4 min. Next, 10 uL of acetylcholine is added (final concentration calculated so as to achieve 20% of the maximum acetycholine response), and the fluorescence reading is continued for 3.5 min. In some cases, a third addition of acetylcholine (final concentration calculated to achieve 70% of the maximal acetylcholine response) is performed. The resulting dose response curves are fit to a 4 parameter logistic equation and the final result is determined as the inflection point (IP) of the curve
CHO-K1 cells stably transfected with human M4 receptor and chimeric G-protein Gαqi5 are thawed from liquid N2 storage, resuspended in growth medium, plated in black, clear bottom 384 well plates, and incubated 16-20 hours at 37° C., 5% CO2.
On the day of assay, growth medium is removed, the cells are washed 2 times with wash buffer, and cells are incubated in dye loading buffer at 37° C., 5% CO2 for ˜1 h. Following dye loading the cell plates are placed in a FLIPR Tetra instrument and while monitoring dye fluorescence ([…]), 10 uL of test substance at increasing concentrations is added, and fluorescence values are recorded for 4 min. Next, 10 uL of acetylcholine is added (final concentration calculated so as to achieve 20% of the maximum acetycholine response), and the fluorescence reading is continued for 3.5 min. In some cases, a third addition of acetylcholine (final concentration calculated to achieve 70% of the maximal acetylcholine response) is performed.
As for `CN1Cc2ccc(-c3nc(C#N)ccc3-c3cnn(CC4(C(F)(F)F)CC4)c3)cc2C1=O` [Example 52, 6-(2-methyl-3-oxoisoindolin-5-yl)-5-(1-((1-(trifluoromethyl)cyclopropyl)methyl)-1H-pyrazol-4-yl)picolinonitrile], the pEC50 was 7.68.

As for `Fc1cc(-c2cnn(CC3(C(F)(F)F)CC3)c2)c(-c2ccn3ccnc3c2)nc1F` [Example 53, 7-(5,6-difluoro-3-(1-((1-(trifluoromethyl)cyclopropyl)methyl)-1H-pyrazol-4-yl)pyridin-2-yl)imidazo[1,2-a]pyridine], the pEC50 is 6.63.

Turning to `CN1Cc2ccc(-c3nc(C#N)c(F)cc3-c3cnn(CC4(C(F)(F)F)CC4)c3)cc2C1=O` [Example 54, 3-fluoro-6-(2-methyl-3-oxo-2,3-dihydro-1H-isoindol-5-yl)-5-(1-{[1-(trifluoromethyl)cyclo-propyl]methyl}-1H-pyrazol-4-yl)pyridine-2-carbonitrile], the pEC50 is 7.35.

Regarding `Cc1nc2cc(-c3nc(C#N)ccc3-c3cnn(CC4(C(F)(F)F)CC4)c3)ccc2o1` [Example 55, 6-(2-methyl-1,3-benzoxazol-5-yl)-5-(1-{[1-(trifluoromethyl)cyclo-propyl]methyl}-1H-pyrazol-4-yl)pyridine-2-carbonitrile], the pEC50 is 6.75.

On to `N#Cc1ccc(-c2cnn(CC3(C(F)(F)F)CC3)c2)c(-c2ccn3ccnc3c2)n1` [Example 56, 6-imidazo[1,2-a]pyridin-7-yl-5-(1-{[1-(trifluoromethyl)cyclo-propyl]methyl}-1H-pyrazol-4-yl)pyridine-2-carbonitrile], for which the pEC50 was 6.90.

Consider `FC(F)(F)C1(Cn2cc(-c3cc(Cl)cnc3-c3ccn4ccnc4c3)cn2)CC1` [Example 57, 7-[5-chloro-3-(1-{[1-(trifluoromethyl)cyclo-propyl]methyl}-1H-pyrazol-4-yl)pyridin-2-yl]imidazo[1,2-a]pyridine], for which the pEC50 is 6.57.

Consider `Cc1cn2ccc(-c3nc(C#N)ccc3-c3cnn(CC4(C(F)F)CC4)c3)cc2n1` [Example 58, 5-(1-{[1-(difluoromethyl)cyclo-propyl]methyl}-1H-pyrazol-4-yl)-6-(2-methylimidazo[1,2-a]pyridin-7-yl)pyridine-2-carbonitrile], for which the pEC50 is 7.31.

For the molecule `FC(F)(F)C1(Cn2cc(-c3ccc(Cl)nc3-c3ccn4ccnc4c3)cn2)CC1` [Example 59, 7-[6-chloro-3-(1-{[1-(trifluoromethyl)cyclo-propyl]methyl}-1H-pyrazol-4-yl)pyridin-2-yl]imidazo[1,2-a]pyridine], the pEC50 is 7.18.

For `Cc1cc(-c2cnn(CC3(C(F)(F)F)CC3)c2)c(-c2ccn3ccnc3c2)nc1Cl` [Example 60, 7-[6-chloro-5-methyl-3-(1-{[1-(trifluoromethyl)cyclo-propyl]methyl}-1H-pyrazol-4-yl)pyridin-2-yl]imidazo[1,2-a]pyridine], the pEC50 was 7.19.

On to `Cc1nc2cc(-c3ncc(F)cc3-c3cnn(CC4CC(F)(F)C4)c3)ccc2n1C` [Example 61, 5-(3-(1-((3,3-difluorocyclobutyl)methyl)-1H-pyrazol-4-yl)-5-fluoropyridin-2-yl)-1,2-dimethyl-1H-benzo[d]imidazole], for which the pEC50 was 6.79.

Turning to `Cc1nc2cc(-c3nc(C#N)ccc3-c3cnn(CC4(C(C)(F)F)CC4)c3)ccc2n1C` [Example 62, 5-(1-{[1-(1,1-difluoroethyl)cyclo-propyl]methyl}-1H-pyrazol-4-yl)-6-(1,2-dimethyl-1H-benzimidazol-5-yl)pyridine-2-carbonitrile], the pEC50 was 7.18.

Regarding `Cc1nc2cc(-c3nc(C#N)ccc3-c3cnn(CC(C)(C)C)c3)ccn2n1` [Example 63, 6-(2-methyl-[1,2,4]triazolo[1,5-a]pyridin-7-yl)-5-(1-neopentyl-1H-pyrazol-4-yl)picolinonitrile], the pEC50 was 7.33.

Turning to `CC(C)(C)Cn1cc(-c2ccc(C#N)nc2-c2ccn3cc(C(F)F)nc3c2)cn1` [Example 64, 6-[2-(difluoromethyl)imidazo [1,2-a]pyridin-7-yl]-5-[1-(2,2-dimethylpropyl)-1H-pyrazol-4-yl]pyridine-2-carbonitrile], the pEC50 was 7.83.

As to `CN1Cc2ncc(-c3nc(C#N)ccc3-c3cnn(CC(C)(C)C)c3)cc2C1=O` [Example 65, 5-[1-(2,2-dimethylpropyl)-1H-pyrazol-4-yl]-6-(6-methyl-5-oxo-6,7-dihydro-5H-pyrrolo[3,4-b]pyridin-3-yl)pyridine-2-carbonitrile], the pEC50 was 7.03.

For the molecule `CC(C)(C)Cn1cc(-c2ccc(C#N)nc2-c2ccn3cc(C(F)(F)F)nc3c2)cn1` [Example 66, 5-[1-(2,2-dimethylpropyl)-1H-pyrazol-4-yl]-6-[2-(trifluoromethyl)imidazo [1,2-a]pyridin-7-yl]pyridine-2-carbonitrile], the pEC50 was 7.26.

Regarding `CC(C)(C)Cn1cc(-c2ccc(C#N)nc2-c2ccn3cc(Cl)nc3c2)cn1` [Example 67, 6-(2-chloroimidazo[1,2-a]pyridin-7-yl)-5-[1-(2,2-dimethylpropyl)-1H-pyrazol-4-yl]pyridine-2-carbonitrile], the pEC50 was 7.75.

Take `Cn1nnc2cc(-c3nc(C#N)ccc3-c3cnn(CC(C)(C)C)c3)ccc21` [Example 68, 5-[1-(2,2-dimethylpropyl)-1H-pyrazol-4-yl]-6-(1-methyl-1H-benzotriazol-5-yl)pyridine-2-carbonitrile]: the pEC50 was 7.25.

Turning to `Cn1nc2ccc(-c3nc(C#N)ccc3-c3cnn(CC(C)(C)C)c3)cc2n1` [Example 69, 5-[1-(2,2-dimethylpropyl)-1H-pyrazol-4-yl]-6-(2-methyl-2H-benzotriazol-5-yl)pyridine-2-carbonitrile], the pEC50 is 6.62.

`Cc1nnc2cc(-c3nc(C#N)ccc3-c3cnn(CC(C)(C)C)c3)ccn12` [Example 70, 5-[1-(2,2-dimethylpropyl)-1H-pyrazol-4-yl]-6-(3-methyl[1,2,4]triazolo[4,3-a]pyridin-7-yl)pyridine-2-carbonitrile]: the pEC50 was 6.99.

With `Cc1ccc(-c2cnn(CC(C)(C)C)c2)c(-c2ccn3cnnc3c2)n1` [Example 71, 7-{3-[1-(2,2-dimethylpropyl)-1H-pyrazol-4-yl]-6-methylpyridin-2-yl}[1,2,4]triazolo[4,3-a]pyridine], the pEC50 was 7.25.

As to `CC(C)(C)Cn1cc(-c2ccc(C#N)nc2-c2ccn3ncnc3c2)cn1` [Example 72, 5-[1-(2,2-dimethylpropyl)-1H-pyrazol-4-yl]-6-[1,2,4]triazolo[1,5-a]pyridin-7-ylpyridine-2-carbonitrile], the pEC50 is 6.87.

As for `CC(C)(C)Cn1cc(-c2ccc(C#N)nc2-c2ccn3nc(CO)nc3c2)cn1` [Example 73, 5-[1-(2,2-dimethylpropyl)-1H-pyrazol-4-yl]-6-[2-(hydroxymethyl)[1,2,4]triazolo[1,5-a]pyridin-7-yl]pyridine-2-carbonitrile], the pEC50 was 6.90.

`CC(C)CCn1cc(-c2cccnc2-c2ccc3c(c2)C(=O)NC3)cn1` [Example 74, 6-{3-[1-(3-methylbutyl)-1H-pyrazol-4-yl]pyridin-2-yl}-2,3-dihydro-1H-isoindol-1-one]: the pEC50 is 6.47.

On to `Cc1ccc(-c2cnn(CCC(C)C)c2)c(-c2ccc3c(c2)CNC3)n1` [Example 75, 5-{6-methyl-3-[1-(3-methylbutyl)-1H-pyrazol-4-yl]pyridin-2-yl}-2,3-dihydro-1H-isoindole], for which the pEC50 was 6.97.

As for `Cc1ccc(-c2cnn(CCC(C)C)c2)c(-c2ccc3c(c2)CN(C(=O)OC(C)(C)C)C3)n1` [Example 76, tert-butyl 5-{6-methyl-3-[1-(3-methylbutyl)-1H-pyrazol-4-yl]pyridin-2-yl}-1,3-dihydro-2H-isoindole-2-carboxylate], the pEC50 is 7.12.

On to `CC(C)CCn1cc(-c2cc(Cl)cnc2-c2ccc3cn(C)nc3c2)cn1` [Example 77, 6-{5-chloro-3-[1-(3-methylbutyl)-1H-pyrazol-4-yl]pyridin-2-yl}-2-methyl-2H-indazole], for which the pEC50 is 6.56.

(Values after US11339156B2, “3-(1H-pyrazol-4-yl)pyridine allosteric modulators of the M4 muscarinic acetylcholine receptor” (Merck Sharp & Dohme Corp., priority 2017, dated 2022).)
